We go through nine compounds from PubChem BioAssay (NCI).

Test systems include SF-295 CNS; SNB-75 CNS; NCI-H460 lung; U251 CNS; MALME-3M melanoma; NCI-H23 lung; HT29 colon; HCT-116 colon; CAKI-1 renal; OVCAR-3 ovarian; SNB-19 CNS; NCI-H522 lung; SK-MEL-28 melanoma; A498 renal; BT-549 breast; HOP-62 NSCLC; T-47D breast.
Common to all, as to assay: NCI-60 cell line screen, 48 h

The structures appear in SMILES notation.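 96-well plates; 48 h exposure; 5 concentrations. Endpoints by linear interpolation between flanking doses. Not reached: highest tested concentration assigned. The concentration for full growth arrest is given as TGI.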

In the case of `C[C@]12CCC(O)CC1=CC[C@@H]1[C@@H]2CC[C@]2(C)C(O)[C@H](n3ccnc3)C[C@@H]12` (stereo partly specified), the TGI with SF-295 CNS, in the assay on SNB-75 CNS, in the assay on NCI-H460 lung, in the assay on U251 CNS, in the assay with MALME-3M melanoma and with NCI-H23 lung was above 100 µM throughout. Also, the TGI with HT29 colon, in the assay with HCT-116 colon, with CAKI-1 renal, in the assay with OVCAR-3 ovarian, with SNB-19 CNS and in the assay on NCI-H522 lung was above 100 µM throughout. The TGI with SK-MEL-28 melanoma and in the assay with A498 renal was above 100 µM in each case.

In the case of `C1=C(CC2=C[P+](c3ccccc3)(c3ccccc3)C=C(c3ccccc3)O2)OC(c2ccccc2)=C[P+]1(c1ccccc1)c1ccccc1`, the TGI was found to be 1.84 µM with SF-295 CNS; 0.881 µM in the assay on SNB-75 CNS; 2.03 µM in the assay on NCI-H460 lung; 1.23 µM in the assay with U251 CNS; 0.697 µM in the assay on MALME-3M melanoma; 2.2 µM in the assay on NCI-H23 lung. The TGI was 1.35 µM in the assay with HT29 colon; 1.25 µM in the assay with HCT-116 colon; 5.39 µM in the assay with CAKI-1 renal; 1.16 µM in the assay on OVCAR-3 ovarian; 1.25 µM in the assay with SNB-19 CNS; 2.02 µM in the assay with SK-MEL-28 melanoma. Moreover, the TGI in the assay on BT-549 breast was 0.309 µM; in the assay on A498 renal, 2.09 µM; in the assay on HOP-62 NSCLC, 1.88 µM.

In the case of `O=C(CP(=O)(c1ccccc1)c1ccccc1)c1cccc(C(=O)CP(=O)(c2ccccc2)c2ccccc2)c1`, the TGI with SF-295 CNS was 30 µM; with SNB-75 CNS it was 37.6 µM; in the assay on NCI-H460 lung it was above 100 µM; in the assay with HT29 colon it was above 100 µM; in the assay with HCT-116 colon it was above 100 µM; in the assay with CAKI-1 renal, above 100 µM. For the same compound, the TGI with T-47D breast, in the assay with SNB-19 CNS, in the assay on SK-MEL-28 melanoma and in the assay with HOP-62 NSCLC was above 100 µM each time.

Turning to `Cc1ccc(S(=O)(=O)NC(=O)NCc2ccc(S(N)(=O)=O)cc2)cc1`, the TGI in the assay on SF-295 CNS, in the assay on SNB-75 CNS, in the assay with NCI-H460 lung, in the assay with U251 CNS, in the assay with MALME-3M melanoma and in the assay on NCI-H23 lung was above 100 µM each time. Further, the TGI in the assay on HT29 colon, in the assay with HCT-116 colon, with CAKI-1 renal, in the assay with T-47D breast, with OVCAR-3 ovarian and in the assay on SNB-19 CNS was above 100 µM throughout. In addition, the TGI with NCI-H522 lung, in the assay on SK-MEL-28 melanoma, in the assay on A498 renal and in the assay on HOP-62 NSCLC was above 100 µM in each case.

Take `Cc1ccc(-c2c(C#N)c(-c3ccccc3)n(NS(=O)(=O)c3ccc(C)cc3)c(=O)c2C#N)cc1`: the TGI in the assay with SF-295 CNS, in the assay with SNB-75 CNS, with NCI-H460 lung, in the assay with U251 CNS, with MALME-3M melanoma and in the assay with HT29 colon was above 100 µM each time. Also, the TGI in the assay on HCT-116 colon, with CAKI-1 renal, in the assay with SNB-19 CNS, in the assay on NCI-H522 lung, with SK-MEL-28 melanoma and in the assay on BT-549 breast was above 100 µM throughout. In addition, the TGI in the assay with A498 renal and in the assay on HOP-62 NSCLC was above 100 µM in each case.

On to `O=C1C2=Cc3ccccc3CCN2c2ccccc21`, for which the TGI is 98.3 µM in the assay with SF-295 CNS; above 100 µM in the assay with SNB-75 CNS; 60.2 µM in the assay on NCI-H460 lung; above 31.6 µM in the assay with U251 CNS; above 76.7 µM with MALME-3M melanoma; above 100 µM with NCI-H23 lung. Further, the TGI in the assay on HT29 colon was 23 µM; in the assay on HCT-116 colon it was above 70.4 µM; in the assay with CAKI-1 renal, 30.4 µM; with OVCAR-3 ovarian, above 100 µM; in the assay with SNB-19 CNS, above 100 µM; with NCI-H522 lung, above 82.7 µM. The TGI in the assay with SK-MEL-28 melanoma is above 82.3 µM; in the assay on BT-549 breast, 33 µM; in the assay on A498 renal, 25.9 µM; with HOP-62 NSCLC, above 100 µM.

For the compound `Cc1cn(C2OC(CO[Si](C)(C)C(C)(C)C)/C(=C\C#N)C2O[Si](C)(C)C(C)(C)C)c(=O)[nH]c1=O` (stereo unspecified), the TGI with SF-295 CNS was 83.5 µM; in the assay with SNB-75 CNS, above 100 µM; in the assay on NCI-H460 lung it was above 100 µM; in the assay on U251 CNS, above 100 µM; with NCI-H23 lung, above 100 µM; in the assay with HT29 colon, above 100 µM. Besides, the TGI in the assay with HCT-116 colon, in the assay on CAKI-1 renal, in the assay with T-47D breast, with OVCAR-3 ovarian, in the assay with SNB-19 CNS and in the assay on SK-MEL-28 melanoma was above 100 µM each time. In addition, the TGI with A498 renal and with HOP-62 NSCLC was above 100 µM each time.

Take `O=S(=O)(/N=S(/Nc1ccccc1)C(Cl)Cl)c1ccccc1` (stereo unspecified): the TGI with SF-295 CNS, in the assay with SNB-75 CNS, in the assay with NCI-H460 lung, with U251 CNS, in the assay with MALME-3M melanoma and with NCI-H23 lung was above 100 µM throughout. The TGI with HT29 colon, in the assay on HCT-116 colon, in the assay with T-47D breast, in the assay on OVCAR-3 ovarian, in the assay with SNB-19 CNS and with SK-MEL-28 melanoma was above 100 µM throughout. Moreover, the TGI in the assay with BT-549 breast and in the assay with HOP-62 NSCLC was above 100 µM in each case.

`COC(=O)/C(C)=N/NC(=S)SC`: the TGI is above 100 µM in the assay with SF-295 CNS; above 100 µM with NCI-H460 lung; above 100 µM in the assay with U251 CNS; above 100 µM in the assay on NCI-H23 lung; above 100 µM in the assay with HT29 colon; 98.5 µM in the assay on HCT-116 colon. Further, the TGI with CAKI-1 renal was above 100 µM; in the assay on T-47D breast, 80.6 µM; in the assay on OVCAR-3 ovarian, above 100 µM; with NCI-H522 lung it was 81.8 µM; in the assay with SK-MEL-28 melanoma, above 100 µM; in the assay on A498 renal, above 100 µM. In the assay with HOP-62 NSCLC, this compound returned a TGI above 100 µM.
